Consider one compound from patent publication US7488712B2, “Histone deacetylase inhibitors and methods for producing the same” (Kyushu Institute of Technology, priority 2002, dated 2009).

The nature of data set [1]: Cytotoxicity test (free-LDH ratio), TIG-3. Type of data set: cell-based. Conditions: human, TIG-3 human normal lung cells, 48 hours, free-LDH ratio 50%, read-out: LD50 (nM) TIG-3. The method, then:
This was then cultured for 18 hours.

Another data set concerns the target T1, human HDAC4 (Homo sapiens, UniProt P56524).
T1 construct: FLAG; made in house; host or cells: 293T cells (transient transfection, anti-FLAG immunoprecipitation, FLAG peptide elution)
The data set is described as follows: In vitro HDAC inhibition activity, [3H]-acetylated histone substrate, HDAC4. Particulars: Table 3. Format: biochemical.

Data set [2] concerns human wild-type p21 promoter. Nature of the data set: p21 promoter-inducing activity (luciferase) in MFLL-9 cells. Format: cell-based.
The nature of data set [3]: Stability in serum (FCS), read out by p21 promoter inducing activity. Format: in vitro ADME. Particulars: FCS, 37° C.; activity at incubation time zero taken as 100%; FIG. 7. As for the experimental part: The stability of SCOP 152, SCOP 304, and SCOP 402 in serum was evaluated by the method shown below: 1 μl of 10 mM SCOP 152, SCOP 304, and SCOP 402 was added to 99 μl FCS, and incubated at 37° C. Each hour, NaCl in a sufficient amount for saturation and 1 ml of ethyl acetate were added to each mixture. After extraction, from 800 μl of the ethyl acetate phase, the ethyl acetate was distilled off, and then 100 μl of DMSO was added to the residue. The resulting solution was further diluted ten times with DMSO and used to measure p21 promoter inducing activity. Activity at incubation time zero was taken as 100%, and activities were compared (FIG. 7).

The nature of the next data set: in vitro. Particulars: human, Cancer-Cell-Selective Cytotoxicity, LD50 for normal cells/LD50 for cancer cells (TIG-3/HeLa). The method, then: Human normal lung cells (TIG-3) and human uterine cancer cells (HeLa) were used to test SCOP cytotoxicity. These TIG-3 and HeLa cells were cultured in a DMEM medium comprising 10% FBS at 37° C. in the presence of 5% carbon dioxide in a steam-saturated incubator. The TIG-3 and HeLa cells were plated in 100 μl/well of the above-described medium on a 96-well microtiter plate, at a density of 30,000 cells/well and 10,000 cells/well respectively. This was then cultured for 18 hours. Test compound solution diluted with medium was added to each well and culture was continued for another 48 hours.
30 μl of supernatant from each well was transferred to another 96-well microtiter plate (A), and the remaining supernatant was discarded. 100 μl of 0.5% Triton-X/PBS was added to each well to lyse the cells, and 30 μl was then transferred to each respective well of another 96-well microtiter plate (B). 30 μl of LDH-Cytotoxic Test (Wako) substrate solution was added to each well of these 96-well microtiter plates A and B, causing a color reaction. Once the color reaction was sufficiently progressed, it was stopped by adding 60 μl of a quenching solution. Color intensity was measured at OD560 nm using a microplate reader (Softmax). [A/(A+B)] was calculated as the free-LDH ratio. […] The higher the activity value for cancer-cell-selective cell damage (LD50 for normal cells/LD50 for cancer cells), the more that cancer-cell-selective apoptosis was induced.

SMILES strings stand for the structures. Where two headings read alike, the source gives them in different places.

T1 sequence (O15379 whole entry partner): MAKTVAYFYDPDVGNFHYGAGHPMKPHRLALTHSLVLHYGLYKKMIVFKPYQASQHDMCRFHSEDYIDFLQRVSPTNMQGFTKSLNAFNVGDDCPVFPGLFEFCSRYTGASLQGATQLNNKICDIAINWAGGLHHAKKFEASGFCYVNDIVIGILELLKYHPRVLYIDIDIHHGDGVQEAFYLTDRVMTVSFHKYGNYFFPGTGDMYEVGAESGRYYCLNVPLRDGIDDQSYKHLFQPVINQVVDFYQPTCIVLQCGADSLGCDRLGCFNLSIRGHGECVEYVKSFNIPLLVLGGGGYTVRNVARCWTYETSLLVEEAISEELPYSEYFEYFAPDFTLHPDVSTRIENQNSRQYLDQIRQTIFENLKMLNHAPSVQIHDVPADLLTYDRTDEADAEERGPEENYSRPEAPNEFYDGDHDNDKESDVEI
T1 sequence (P56524 whole entry): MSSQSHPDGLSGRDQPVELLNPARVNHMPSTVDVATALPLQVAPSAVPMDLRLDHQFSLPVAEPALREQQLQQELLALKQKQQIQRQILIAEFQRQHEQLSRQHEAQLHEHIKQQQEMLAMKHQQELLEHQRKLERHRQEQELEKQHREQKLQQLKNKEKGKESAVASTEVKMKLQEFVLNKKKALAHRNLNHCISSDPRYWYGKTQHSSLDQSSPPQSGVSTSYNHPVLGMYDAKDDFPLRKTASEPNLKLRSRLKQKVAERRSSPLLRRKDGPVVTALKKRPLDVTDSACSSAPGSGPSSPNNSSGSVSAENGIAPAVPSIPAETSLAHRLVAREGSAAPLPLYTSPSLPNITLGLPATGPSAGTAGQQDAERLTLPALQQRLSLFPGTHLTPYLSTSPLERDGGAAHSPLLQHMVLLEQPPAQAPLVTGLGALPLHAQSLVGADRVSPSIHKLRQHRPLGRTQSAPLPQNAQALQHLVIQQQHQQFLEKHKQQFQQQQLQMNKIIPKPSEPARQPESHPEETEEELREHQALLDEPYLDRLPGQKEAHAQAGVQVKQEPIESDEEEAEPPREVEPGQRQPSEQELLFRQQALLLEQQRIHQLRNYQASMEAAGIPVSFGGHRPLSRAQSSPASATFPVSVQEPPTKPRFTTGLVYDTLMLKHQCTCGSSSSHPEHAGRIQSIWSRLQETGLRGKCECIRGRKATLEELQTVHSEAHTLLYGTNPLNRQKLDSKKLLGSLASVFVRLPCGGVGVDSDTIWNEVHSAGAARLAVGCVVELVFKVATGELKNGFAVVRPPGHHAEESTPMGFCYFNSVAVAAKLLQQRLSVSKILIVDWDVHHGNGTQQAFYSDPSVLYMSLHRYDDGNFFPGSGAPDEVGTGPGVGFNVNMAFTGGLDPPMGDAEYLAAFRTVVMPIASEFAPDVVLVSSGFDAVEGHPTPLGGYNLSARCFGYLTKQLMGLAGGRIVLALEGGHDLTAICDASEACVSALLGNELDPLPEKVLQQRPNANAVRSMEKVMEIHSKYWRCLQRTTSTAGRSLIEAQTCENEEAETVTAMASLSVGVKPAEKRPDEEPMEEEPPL

Consider `CC[C@H](C)[C@@H]1NC(=O)[C@@H](Cc2ccc(OC)cc2)NC(=O)[C@H](CCCCCSSc2ccncc2)NC(=O)[C@H]2CCCN2C1=O` [SCOP 402, cyclo(-L-Am7(S4Py)-D-Tyr(Me)-L-Ile-D-Pro-)], for which the CC50 at 48 h is 4460 nM in data set [1] (with DTT (/DTT)) and 13300 nM in data set [1] (without DTT). Further, the IC50 against human HDAC4 (hybrid with DTT (/DTT)) was 1.12 nM; on human HDAC4 (hybrid, without DTT), 68.3 nM. Also, the EC50 in data set [2] (Table 3, hybrid with DTT (/DTT)) amounted to 470 nM; in data set [2] (Table 3, hybrid, without DTT), 1310 nM. Moreover, the “Retention of activity in serum” value in data set [3] was “stably retain activity in serum for longer than SCOP 152”. The selectivity ratio at 48 h in “in vitro” (with DTT (/DTT)) was determined as 27.8; in the data set “in vitro” (without DTT) it was 11.4.

As a reminder, the IC50 is the concentration that inhibits the measured activity by half. Read a low IC50 as higher potency. The term EC50 denotes the concentration needed to bring the measured effect to its halfway point.
